Like-named read-outs stand apart in the source and are kept apart here.
What was measured:
[1] = Animal body weight and general observations, Ba/F3 ETV6-NTRK3 tumor-bearing nude mice; details: 100 mg/kg bid
Method: (§2) The mice in groups were intragastrically administrated on the next day, and the animal body weight and the long and short diameters of the tumor were measured once every other day.

[2] = Animal body weight and general observations, Ba/F3 ETV6-NTRK3-G623R tumor-bearing nude mice; details: 100 mg/kg bid
Method: as §2

[3] = target: T1, Ba/F3 LMNA-NTRK1-F589L (Homo sapiens, UniProt P04629, F589L, cells depend on it); test: Inhibitory activity against cell proliferation (CellTiter-Glo, 72 hours); assay type: cell-based; details: read-out: Half maximal inhibitory concentration IC50 of cells, Ba/F3 LMNA-NTRK1-F589L
T1 construct: fused on or other part: N-terminal part of LMNA as fusion partner (part of the key); P02545 (Prelamin-A/C)
T1 sequence (P04629 whole entry F589L, the tested form may be a part): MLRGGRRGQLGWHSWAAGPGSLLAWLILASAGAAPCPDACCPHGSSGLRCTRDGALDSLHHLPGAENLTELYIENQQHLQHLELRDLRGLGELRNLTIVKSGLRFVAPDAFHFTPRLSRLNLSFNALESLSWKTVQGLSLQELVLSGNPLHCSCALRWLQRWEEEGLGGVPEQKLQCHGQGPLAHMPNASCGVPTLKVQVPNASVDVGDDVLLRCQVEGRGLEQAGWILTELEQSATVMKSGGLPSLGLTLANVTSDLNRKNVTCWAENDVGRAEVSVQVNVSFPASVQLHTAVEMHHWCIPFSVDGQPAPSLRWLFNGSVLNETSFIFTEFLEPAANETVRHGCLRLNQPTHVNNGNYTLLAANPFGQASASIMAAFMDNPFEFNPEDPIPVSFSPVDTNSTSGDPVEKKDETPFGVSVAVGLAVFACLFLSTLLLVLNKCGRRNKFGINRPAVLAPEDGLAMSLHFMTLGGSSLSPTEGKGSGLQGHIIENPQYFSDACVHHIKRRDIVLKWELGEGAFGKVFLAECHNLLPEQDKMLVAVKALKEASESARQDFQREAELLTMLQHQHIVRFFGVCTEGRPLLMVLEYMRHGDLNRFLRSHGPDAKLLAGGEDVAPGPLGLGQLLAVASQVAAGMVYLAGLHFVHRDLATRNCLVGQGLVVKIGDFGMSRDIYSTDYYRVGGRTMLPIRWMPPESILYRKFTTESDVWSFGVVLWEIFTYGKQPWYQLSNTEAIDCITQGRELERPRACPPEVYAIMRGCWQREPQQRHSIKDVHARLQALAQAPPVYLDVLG
In short: (§1)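 Log-phase Ba/F3 cells (trypan blue viability above 90%) were treated in triplicate with a 9-point, 3-fold compound series. ATP-dependent luminescence was read after CellTiter-Glo addition, and IC50 values came from nonlinear sigmoidal dose-response fits.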

[4] = target: T2, BaF3 LMNA-NTRK1-G667A (Homo sapiens, UniProt P04629, G667A, cells depend on it); test: as above; assay type: cell-based; details: read-out: Half maximal inhibitory concentration IC50 of cells, BaF3 LMNA-NTRK1-G667A
T2 construct: fused on or other part: N-terminal part of LMNA as fusion partner (part of the key); P02545 (Prelamin-A/C)
T2 sequence (P04629 whole entry G667A, the tested form may be a part): as the sequence (P04629 whole entry F589L, the tested form may be a part) above, with L589F, G667A counted along it
In short: as §1

[5] = target: T3, BaF3 ETV6-NTRK3-WT (Homo sapiens, UniProt Q16288); test: as above; assay type: cell-based; details: read-out: Half maximal inhibitory concentration IC50 of cells, BaF3 ETV6-NTRK3-WT
T3 construct: fused on or other part: N-terminal part of ETV6 (TEL) as fusion partner (part of the key); P41212 (Transcription factor ETV6)
T3 sequence (Q16288 whole entry, change not shown, the tested form may be a part): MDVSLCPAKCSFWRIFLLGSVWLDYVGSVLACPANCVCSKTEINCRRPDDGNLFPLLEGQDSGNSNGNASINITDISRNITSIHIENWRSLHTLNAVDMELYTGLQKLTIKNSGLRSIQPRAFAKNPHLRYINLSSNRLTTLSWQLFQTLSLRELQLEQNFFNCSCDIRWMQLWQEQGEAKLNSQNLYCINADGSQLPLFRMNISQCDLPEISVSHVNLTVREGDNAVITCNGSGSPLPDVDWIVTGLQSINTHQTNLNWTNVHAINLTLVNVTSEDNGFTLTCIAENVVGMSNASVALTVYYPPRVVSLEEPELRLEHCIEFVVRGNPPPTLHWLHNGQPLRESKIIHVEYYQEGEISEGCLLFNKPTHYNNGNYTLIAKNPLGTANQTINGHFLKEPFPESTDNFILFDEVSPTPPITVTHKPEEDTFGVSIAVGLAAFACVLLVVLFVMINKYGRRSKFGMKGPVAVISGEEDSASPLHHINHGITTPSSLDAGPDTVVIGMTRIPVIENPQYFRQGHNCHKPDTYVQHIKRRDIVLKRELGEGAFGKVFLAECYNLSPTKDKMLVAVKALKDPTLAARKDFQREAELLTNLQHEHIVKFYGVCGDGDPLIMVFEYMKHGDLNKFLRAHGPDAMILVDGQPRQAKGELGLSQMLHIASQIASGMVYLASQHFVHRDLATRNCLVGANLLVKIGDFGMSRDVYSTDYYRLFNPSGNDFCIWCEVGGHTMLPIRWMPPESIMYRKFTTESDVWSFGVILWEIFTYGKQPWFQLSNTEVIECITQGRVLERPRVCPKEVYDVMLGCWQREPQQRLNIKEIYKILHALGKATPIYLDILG
In short: as §1

[6] = target: T4, BaF3 LMNA-NTRK1-G595R (Homo sapiens, UniProt P04629, G595R, cells depend on it); test: as above; assay type: cell-based; details: read-out: Half maximal inhibitory concentration IC50 of cells, BaF3 LMNA-NTRK1-G595R
T4 construct: fused on or other part: N-terminal part of LMNA as fusion partner (part of the key); P02545 (Prelamin-A/C)
T4 sequence (P04629 whole entry G595R, the tested form may be a part): as the sequence (P04629 whole entry F589L, the tested form may be a part) above, with L589F, G595R counted along it
In short: as §1

[7] = target: T5, Ba/F3 LMNA-NTRK1-WT (Homo sapiens, UniProt P04629); test: as above; assay type: cell-based; details: read-out: Half maximal inhibitory concentration IC50 of cells, Ba/F3 LMNA-NTRK1-WT
T5 construct: fused on or other part: N-terminal part of LMNA as fusion partner (part of the key); P02545 (Prelamin-A/C)
T5 sequence (P04629 whole entry, change not shown, the tested form may be a part): as the sequence (P04629 whole entry F589L, the tested form may be a part) above, with L589F counted along it
In short: as §1

[8] = Pharmacokinetic test of compounds in mice (plasma, LC/MS/MS); assay type: in vivo, male CD-1 mice; details: for AUC(0-t): read-out: Area under the curve AUC0-last
Method: Experimental purpose: male CD-1 mice aged 7-9 weeks were selected as test animals, and the drug concentrations of the compounds in plasma at different time points after single intravenous injection (IV) and intragastric administration (PO) of the compounds were measured by an LC/MS/MS method, so that the pharmacokinetic behavior of the compounds disclosed herein in mice was studied, and the pharmacokinetic characteristic of the compounds was evaluated.
Drug preparation: the compounds were all prepared into clear solution by taking 5% DMSO+10% solutol+85% water as vehicle, and were used for administration in IV and PO groups. The dose of each compound administered was: IV, 3 mg/kg; PO, 10 mg/kg.

SMILES: C[C@@H]1CCc2ncc(F)cc2[C@H]2CCCN2c2ccn3ncc(c3n2)C(=O)N1 [LOXO-195, reference compound]
- Rate of change in body weight (%) of day 11 to day 0 [1]: 4.9%
- Body weight ([1]; Day 0): 22.7 ± 2.7 g
- Body weight ([1]; Day 3): 24.4 ± 2.7 g
- Body weight ([1]; Day 5): 24.9 ± 2.6 g
- Body weight ([1]; Day 7): 25.1 ± 2.8 g
- Body weight ([1]; Day 9): 25.4 ± 3.0 g
- Body weight ([1]; Day 11): 25.2 ± 3.0 g
- Rate of change in body weight (%) of day 11 to day 0 [2]: 2.1%
- General observations ([2]; the 1# animal, possibly associated with the administration operation): developed thorax congestion at D8 and died at D10
- Body weight ([2]; Day 0): 23.5 ± 1.2 g
- Body weight ([2]; Day 3): 24.4 ± 1.1 g
- Body weight ([2]; Day 5): 24.4 ± 0.9 g
- Body weight ([2]; Day 7): 24.6 ± 0.9 g
- Body weight ([2]; Day 9): 24.4 ± 1.2 g
- Body weight ([2]; Day 11): 24.0 ± 1.7 g
- GI50 [3]: 44 nM
- GI50 [4]: 24.4 nM
- GI50 [5]: 2.6 nM
- GI50 [6]: 6.8 nM
- GI50 [7]: 4.9 nM
- Apparent clearance Cl ([8]; IV, 3 mg/kg): 11.8 mL/min/kg
- Bioavailability F % ([8]; PO, 10 mg/kg): 74%
- Vd ([8]; male, CD-1, mouse, plasma, IV, 3 mg/kg, read-out: Apparent volume of distribution Vd): 0.5 L/kg
- AUC(0-t) ([8]; male, CD-1, mouse, plasma, IV, 3 mg/kg): 11.1 µM·h
- half-life ([8]; male, CD-1, mouse, plasma, IV, 3 mg/kg, read-out: Half-life T1/2 (converted)): 71.4 min
- AUC(0-t) ([8]; male, CD-1, mouse, plasma, PO, 10 mg/kg): 27.3 µM·h
- Cmax ([8]; male, CD-1, mouse, plasma, PO, 10 mg/kg, read-out: Peak concentration Cmax): 12.7 µM
- Tmax ([8]; male, CD-1, mouse, plasma, PO, 10 mg/kg, read-out: Time to peak Tmax): 22.8 min

Reference: patent publication US20210403485A1, “PYRAZOLOPYRIMIDINE DERIVATIVE AS SELECTIVE TRK INHIBITOR” (SHANDONG LUYE PHARMACEUTICAL CO., LTD., priority 2018, published 2021)
